Like-named read-outs stand apart in the source and are kept apart here.
How the values were obtained:
[1] = system: MDAY-D2 tumor cells; assay: L-PHA toxicity assay (inhibition of oligosaccharide processing in cells); assay type: cell-based, mouse; conditions: for IC50 for inhibition of Golgi oligosaccharide processing, higher / activity as inhibitors of Golgi oligosaccharide processing in viable MDAY-D2 tumor cells: compared to SW; for IC50: Mus musculus, read-out: IC50 for Inhibition of L-PHA Toxicity
Procedure: MDAY-D2 tumor cells were inoculated into 96 well micro-test plates at 2×10^4 cells/well, and containing serial dilutions of SW or SW analogues in MEM plus 10% FCS. The cells were cultured for 18-20 hr, followed by the addition of L-PHA at 25 μg/ml for an additional 24 hr. Cell proliferation was measured by adding 0.5 μCi/well of ^3 H-thymidine for 3-4 hr, harvesting onto glass fibre disks using a Titertek harvester and the disks were counted in a liquid scintillation counter. The apparent IC50 values for SW and the analogues are the drug concentrations showing 50% protection from L-PHA toxicity; that is 50% ^3 H-thymidine incorporated compared with cells grown in the absence of L-PHA. In experiments using the esterase inhibitor diethyl p-nitrophenyl phosphate, the compound was added to MDAY-D2 cells 4 hr prior to the α-mannosidase inhibitors and was present through-out the experiment.

[2] = target: T1, Jack Bean α-mannosidase (Canavalia ensiformis, UniProt C0HJB3); assay: Inhibition of Jack Bean α-mannosidase; assay type: biochemical
T1 construct: purchased Sigma
T1 sequence (C0HJB3 1-981): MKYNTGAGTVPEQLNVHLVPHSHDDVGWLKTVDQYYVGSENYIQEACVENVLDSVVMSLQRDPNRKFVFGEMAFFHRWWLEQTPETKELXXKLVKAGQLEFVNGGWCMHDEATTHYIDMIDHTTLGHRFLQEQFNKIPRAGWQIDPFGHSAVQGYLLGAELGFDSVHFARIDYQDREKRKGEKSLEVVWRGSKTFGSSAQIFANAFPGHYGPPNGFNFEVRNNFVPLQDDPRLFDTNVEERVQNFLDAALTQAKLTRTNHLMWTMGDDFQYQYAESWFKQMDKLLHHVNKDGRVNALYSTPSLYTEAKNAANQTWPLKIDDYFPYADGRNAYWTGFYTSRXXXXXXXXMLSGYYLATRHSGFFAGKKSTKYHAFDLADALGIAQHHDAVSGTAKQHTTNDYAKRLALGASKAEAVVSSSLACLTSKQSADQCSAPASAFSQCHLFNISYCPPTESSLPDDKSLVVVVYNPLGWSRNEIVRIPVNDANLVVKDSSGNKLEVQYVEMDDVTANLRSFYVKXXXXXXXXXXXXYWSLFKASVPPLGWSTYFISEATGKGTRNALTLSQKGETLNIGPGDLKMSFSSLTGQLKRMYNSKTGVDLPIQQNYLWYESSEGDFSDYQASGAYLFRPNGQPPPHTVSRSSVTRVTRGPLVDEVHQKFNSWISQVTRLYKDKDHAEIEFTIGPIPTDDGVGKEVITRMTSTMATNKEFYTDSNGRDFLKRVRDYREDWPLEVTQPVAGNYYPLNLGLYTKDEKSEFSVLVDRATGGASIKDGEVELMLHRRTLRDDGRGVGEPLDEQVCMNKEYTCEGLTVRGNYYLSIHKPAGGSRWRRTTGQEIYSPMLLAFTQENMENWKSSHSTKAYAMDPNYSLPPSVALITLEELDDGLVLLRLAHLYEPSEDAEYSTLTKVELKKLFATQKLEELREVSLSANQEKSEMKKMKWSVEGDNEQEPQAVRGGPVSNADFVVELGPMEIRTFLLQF
Procedure: Jack Bean α-mannosidase (Sigma, 38 U/ml) was diluted 1/800, 10 μl was added to each well and the plates were incubated for 20 min at 37° C. The reaction was stopped by the addition of 150 μl of 0.5M sodium carbonate and formation of p-nitrophenol was measured with a plate set at 405 nm.

[3] = system: bone marrow cells; assay: Bone marrow cell proliferation assay; assay type: in vivo, C57B1/6J mice; conditions: 10 ug/injection i.p. twice daily, four days; mean +/- S.E. of 4 experiments
Procedure: Pathogen-free C57B1/6J mice, 8-14 weeks old were maintained according to NIH ethical guidelines. Groups of 2-3 mice received intraperitoneal injections of the PBS, SW or designated analog twice daily for 4 days. […] Eighteen hours after the last SW injection, mice were sacrificed and BM cells were harvested. Marrow cell suspensions were prepared under sterile conditions using femurs and tibias of both legs from each donor. Bone marrow (BM) cells were flushed from the marrow cavities with ice-cold RPMI 1640, washed and resuspended at desired concentrations in RPMI-1640 supplemented with 5% FCS, penicillin (100 U/ml) and streptomycin (100 μg/ml). Cell viability was monitored by staining with trypan blue. The ability of the analogues to stimulate BM proliferation was measured by two methods. First, cellularity was determined by directly counting BM cells after they were flushed from the tibias and femurs. Second, enhancement in proliferation was assessed by the increase in the proportion of BM progenitor cells present in the BM preparations as measured by colony formation in soft agar (CFU). BM cells were processed according to the procedures of the GIBCO-BRL Mouse Bone Marrow Stem Cell Proliferation Kit, which employs suspensions of mononuclear cells in a semi-solid methylcellulose medium containing FCS. 2-mercaptoethanol and the growth factors, interleukin-3 (IL-3) (75 U/ml) and erythropoietin (20 U/ml). The plates were incubated for 10-14 days at 37° C. in a humidified atmosphere of 5% CO2 and 95% air, and colonies consisting of at least 40 cells were enumerated using an inverted microscope. The potential colonies that form in the semi-solid medium are the granulocyte, erythrocyte, monocyte, megakaryocyte (ie. CFU-GEMM); the granulocyte, macrophage (ie. CFU-GM), and the burst forming unit-erythroid(ie BFUe).
Mice were given twice daily intraperitoneal injections of PBS, SW or the analogues at 10 ug/injection. After four days of injections, BM cells were flushed from the femurs and tibias and counted. CFUs growing in soft agar consisting of at least 40 cells were enumerated. The results are the mean +/-S.E. of 4 experiments.

[4] = MDAY-D2 tumor cells, L-PHA 25 μg/ml, 50% protection by 3H-thymidine incorporation
[5] = p-nitrophenyl α-D-mannopyranoside, pH 5.0, 20 min 37° C., read-out: IC50 for inhibition of J.B. α-mannosidase

Compound	IC50 for inhibition of Golgi oligosaccharide processing, higher ([1]; MDAY-D2 tumor cells)	IC50 [1, 4] [µM]	IC50 [2, 5] [µM]	BM cellularity [3] [cells × 10^7]	CFU [3] [colonies/10^7 cells]	activity as inhibitors of Golgi oligosaccharide processing in viable MDAY-D2 tumor cells [1]	IC50 [2] [µM]	reduction of inhibitor activity / greater IC50 for α-mannosidase in vitro compared to SW ([2]; compared to SW) [fold]	less active than SW in the Jack Bean α-mannosidase assay ([2]; compared to SW) [times]	IC50 ([1]; MDAY-D2, 3 h) [µM]
O=C(OC1CN2CCCC(O)C2C1O)c1ccccc1 (stereo not drawn) [2-benzoyloxy-SW]	at least 10 times	1.8	350	5.77 ± 0.00	421 ± 44					
CCCC(=O)OC1CN2CCCC(O)C2C1O (stereo not drawn) [2-butanoyloxy-SW]		0.23		3.80 ± 0.91	545 ± 59	retained full activity	123	300		
CCCCCCCC(=O)OC1CN2CCCC(O)C2C1O (stereo not drawn) [2-octanoyloxy-SW]		0.23	123		482 ± 22	retained full activity		300		
O=C(OC1CN2CCCC(O)C2C1O)c1ccc([N+](=O)[O-])cc1 (stereo not drawn) [2-p-nitrobenzoyloxy-SW]		0.23	123	3.60 ± 0.42	380 ± 7	retained full activity		300		
Cc1ccc(C(=O)O[C@@H]2CN3CCC[C@@H](O)[C@@H]3[C@@H]2O)cc1 [2-toluoyloxy-SW]	at least 10 times	3.4	350	3.40 ± 0.25	384 ± 25					
OC1CN2C[C@@H](O)[C@@H](O)[C@H]2[C@H](O)C1O (stereo partly drawn) [6,7-dihydroxy-SW]		> 5	50	5.20 ± 0.03	538 ± 5				100	
CCCCCCCCCCCCCC(=O)OC1CCCN2CC(O)C(O)C12 (stereo not drawn) [8-myristinoyloxy-SW]	at least 10 times	> 2.5	> 500	4.80 ± 0.24	226 ± 6					
CCCCCCCCCCCCCCCC(=O)OC1CCCN2CC(O)C(O)C12 (stereo not drawn) [8-palmitoyloxy-SW]	at least 10 times	> 2.5	240	5.10 ± 0.57	553 ± 32					
O[C@H]1[C@H]2[C@H](O)CCCN2C[C@H]1O [SW, Swainsonine, reference compound]				4.50 ± 0.42	540 ± 34					0.2

— patent US5773239A, “Mannosidase inhibitors, process for their preparation and their use as therapeutic agents” (Mount Sinai Hospital Corporation., priority 1995, dated 1998)
